What all share (test): NCI tumour cell line growth inhibition, 48 h
Assay [1] concerns HCC-2998 colon.
Assay [2] relates to RPMI-8226 leukemia.
Assay [3] relates to NCI-H226 lung.
The test system of assay [4] is OVCAR-8 ovarian.
Assay [5] relates to EKVX NSCLC.
Assay [6] deals with SK-MEL-5 melanoma.
Assay [7] deals with LOX IMVI melanoma.
Assay [8] deals with OVCAR-3 ovarian.
The subject of assay [9] is HOP-62 NSCLC.
The test system of assay [10] is K-562 leukemia.

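The compound was tested at five concentrations on cells cultured in 96-well plates, with a 48-hour exposure period. GI50: concentration for 50% inhibition of growth. The concentration for full growth arrest is given as TGI.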

As to `Brc1ccc([I+]c2ccc(Br)cc2)cc1`, the GI50 in assay [1] is 1.32 µM; in assay [2], 0.55 µM; in [3], 2.93 µM; in [4], 1.08 µM; in assay [5], 1.02 µM; in assay [6] it was 0.545 µM. Further, the GI50 in assay [7] is 0.713 µM; in assay [8], 1.19 µM. Also, the TGI came out at 8.12 µM in assay [1]; 10.5 µM in assay [2]; 15.3 µM in assay [3]; 4.01 µM in assay [4]; 3.04 µM in assay [5]; 1.83 µM in assay [6]. Besides, the TGI in assay [7] turned out to be 2.12 µM; in assay [8], 3.06 µM.
As to `O=c1c2ccc3cccc4c(=O)cc(c5ccccc15)-c2c34`, the TGI in assay [1], in [3], in assay [4], in [9], in assay [5] and in assay [6] was more than 100 µM in each case. For the same compound, the TGI in [7], in [8] and in assay [10] was more than 100 µM in each case.
Turning to `O=C1/C(=C/c2ccccc2Cl)N=C(c2ccccc2)N1Cc1ccco1`, the GI50 is 43.2 µM in [1]; 25.4 µM in assay [2]; more than 100 µM in assay [4]; more than 100 µM in assay [9]; 54 µM in assay [5]; 17.9 µM in assay [6]. Besides, the GI50 in assay [8] was 26.9 µM; in assay [10], 24.2 µM. The TGI in [1] was more than 100 µM; in assay [2], more than 100 µM; in assay [4], more than 100 µM; in [9] it was more than 100 µM; in assay [5], more than 100 µM; in [6] it was 36.3 µM. For the same compound, the TGI in assay [8] and in [10] was more than 100 µM each time.
Turning to `CC(C)C(=O)N[C@@H](C)C(=O)N(Cc1ccc2ccccc2c1)N=O`, the TGI in [1], in assay [2], in assay [4], in assay [9], in assay [5] and in assay [6] was more than 100 µM throughout. The TGI in [7], in [8] and in assay [10] was more than 100 µM throughout.
As for `Nc1ccc2c(c1)C(=O)c1c(F)cccc1-2`, the TGI in [1] was more than 100 µM; in assay [2], more than 100 µM; in assay [3], more than 100 µM; in assay [4], more than 100 µM; in assay [9] it was more than 100 µM; in assay [5] it was 37.7 µM. The TGI in assay [6] is 95.1 µM; in assay [7], more than 100 µM; in assay [8] it was more than 100 µM.
Regarding `N=C(c1ccccc1)N(O)C1CCCCC1`, the TGI in assay [1], in assay [3], in assay [4], in assay [9], in [5] and in [6] was more than 100 µM in each case. In addition, the TGI in [7] is more than 100 µM.
Turning to `CC(=O)OC1CCn2nnc(COC(=O)NC(C)C)c21` (stereo not drawn), the TGI in [1], in [2], in assay [3], in assay [4], in [5] and in assay [6] was more than 100 µM in each case. The TGI in assay [8] and in assay [10] was more than 100 µM each time.
As for `O=C(O)C1C2CC3C(OC(=O)C31)C2Br` (stereo not drawn), the TGI in assay [2], in assay [3], in assay [4], in assay [9], in assay [5] and in assay [6] was more than 100 µM throughout. The results for the TGI in assay [7], in assay [8] and in assay [10] were more than 100 µM, more than 100 µM and more than 88.9 µM, respectively.
Turning to `CCCNCc1nc2ccc(Br)cc2c(=O)n1CCC`, the TGI in assay [2] was more than 100 µM; in [3] it was 26 µM; in assay [4], 26.7 µM; in assay [9], 36.9 µM; in assay [5], 33.3 µM; in assay [6], 21.6 µM. For the same compound, the TGI in assay [7] was 17.7 µM; in assay [8] it was 32.5 µM; in assay [10] it was more than 100 µM.
As to `Cc1ccccc1C(=O)Oc1ccc(Oc2ccccc2)cc1`, the TGI in [1], in assay [2], in assay [3], in [4], in assay [9] and in [5] was more than 100 µM throughout. For the same compound, the TGI in [6], in [8] and in [10] was more than 100 µM throughout.
As for `COC(CCP(=O)(c1ccccc1)c1ccccc1)(C(=O)c1ccccc1)c1ccccc1` (stereo not drawn), the GI50 is 4.11 µM in assay [1]; 0.433 µM in [2]; 2.19 µM in assay [3]; 7.95 µM in assay [4]; 11 µM in [9]; 4.37 µM in assay [5]. For the same compound, the GI50 in assay [6] is 2.39 µM; in [7], 5.12 µM; in assay [8], 5.26 µM. The TGI in [1] was found to be 17.9 µM; in assay [2], 2.6 µM; in assay [3], 15.7 µM; in assay [4], 27.8 µM; in assay [9], 24.8 µM; in [5] it was 16.9 µM. The TGI in [6] came to 10.9 µM; in assay [7], 19.6 µM; in [8], 18.2 µM.
On to `COc1ccc2c3c1C(=O)CCC3CO2` (stereo not drawn), for which the TGI in [1], in assay [2], in assay [4], in [9], in [5] and in assay [6] was more than 100 µM throughout. Moreover, the TGI in assay [7], in assay [8] and in assay [10] was more than 100 µM each time.

The record behind these values is PubChem BioAssay (NCI).
